This test concerns the target HPK1 (Homo sapiens (Human), UniProt Q92918). In words: HPK1 Kinase Binding Assay. A digest of the protocol: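 Active HPK1 (added as 4 nM solution) was combined with compound (3-fold, 11-point series) and tracer 222 (18 nM) plus Eu-anti-GST antibody (4 nM) in 50 mM HEPES pH 7.5 with MgCl2 and DTT. After 1 h at 25 °C plates were read. Ki values were derived.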
HPK1, sequence (Q92918 1-346): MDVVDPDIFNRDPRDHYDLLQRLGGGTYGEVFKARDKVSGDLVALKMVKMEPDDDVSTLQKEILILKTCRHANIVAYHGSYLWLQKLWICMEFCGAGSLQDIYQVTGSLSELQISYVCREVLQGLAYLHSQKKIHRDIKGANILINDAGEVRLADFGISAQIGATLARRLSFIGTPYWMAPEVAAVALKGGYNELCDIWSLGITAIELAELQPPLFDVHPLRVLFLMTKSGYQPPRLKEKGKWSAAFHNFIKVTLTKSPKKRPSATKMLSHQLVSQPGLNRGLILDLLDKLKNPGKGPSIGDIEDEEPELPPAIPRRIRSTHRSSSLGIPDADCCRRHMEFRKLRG
Regarding `CNCc1ccc(-c2cc3c(-c4cnn(C)c4)n[nH]c3cn2)c(C)c1` [Example 111, N-Methyl-1-(3-methyl-4-(3-(1-methyl-1H-pyrazol-4-yl)-1H-pyrazolo[3,4-c]pyridin-5-yl)phenyl)methanamine], the inhibition constant (Ki) was at most 100 nM.

`CNCc1ccc(-c2cc3c(-c4cnn(C)c4)n[nH]c3cn2)c(C(F)(F)F)c1` [Example 112, N-Methyl-1-(4-(3-(1-methyl-1H-pyrazol-4-yl)-1H-pyrazolo[3,4-c]pyridin-5-yl)-3-(trifluoromethyl)phenyl)methanamine] yielded an inhibition constant (Ki) of at most 100 nM. Then `CNCc1cc(C)c(-c2cc3c(-c4ccc(N5CCC(O)C5)nc4)n[nH]c3cn2)c(F)c1` (centres unmarked) [Example 113, 1-(5-(5-(2-Fluoro-6-methyl-4-((methylamino)methyl)phenyl)-1H-pyrazolo[3,4-c]pyridin-3-yl)pyridin-2-yl)pyrrolidin-3-ol], with at most 100 nM; and `CNCc1cc(C)c(-c2cc3c(-c4ccc(N5CCCC(OC)C5)nc4)n[nH]c3cn2)c(F)c1` (centres unmarked) [Example 114, 1-(3-Fluoro-4-(3-(6-(3-methoxypiperidin-1-yl)pyridin-3-yl)-1H-pyrazolo[3,4-c]pyridin-5-yl)-5-methylphenyl)-N-methylmethanamine], with at most 100 nM. Then `COc1cccc(F)c1-c1cc2c(-c3cccc(C4CCN(C)CC4)n3)n[nH]c2cn1` [Example 115, 5-(2-Fluoro-6-methoxyphenyl)-3-(6-(1-methylpiperidin-4-yl)pyridin-2-yl)-1H-pyrazolo[3,4-c]pyridine], with at most 100 nM; and `COc1cccc(F)c1-c1cc2c(/C=C/c3ccc(Br)cc3)n[nH]c2cn1` [Example 116, 3-(4-Bromostyryl)-5-(2-fluoro-6-methoxyphenyl)-1H-pyrazolo[3,4-c]pyridine], with at most 100 nM. In turn, `CNCc1cc(C)c(-c2cc3c(-c4cccc(N5CCOCC5)n4)n[nH]c3cn2)c(F)c1` [Example 117, 1-(3-Fluoro-5-methyl-4-(3-(6-morpholinopyridin-2-yl)-1H-pyrazolo[3,4-c]pyridin-5-yl)phenyl)-N-methylmethanamine] had a Ki of at most 100 nM. `CCN(C)c1cccc(-c2n[nH]c3cnc(-c4c(C)cc(CNC)cc4F)cc23)n1` [Example 118, N-Ethyl-6-(5-(2-fluoro-6-methyl-4-((methylamino)methyl)phenyl)-1H-pyrazolo[3,4-c]pyridin-3-yl)-N-methylpyridin-2-amine] displayed an inhibition constant Ki of at most 100 nM. In turn, `CNCc1cc(F)c(-c2cc3c(-c4ccc(N5CCN(C)CC5)nc4)n[nH]c3cn2)c(C(F)(F)F)c1` [Example 119, 1-(3-Fluoro-4-(3-(6-(4-methylpiperazin-1-yl)pyridin-3-yl)-1H-pyrazolo[3,4-c]pyridin-5-yl)-5-(trifluoromethyl)phenyl)-N-methylmethanamine] yielded an inhibitory constant (Ki) of at most 100 nM.

Compound `CNCc1cc(F)c(-c2cc3c(-c4ccc(C5CC5)nc4)n[nH]c3cn2)c(C(F)(F)F)c1` [Example 120, 1-(4-(3-(6-Cyclopropylpyridin-3-yl)-1H-pyrazolo[3,4-c]pyridin-5-yl)-3-fluoro-5-(trifluoromethyl)phenyl)-N-methylmethanamine] gave a Ki of at most 100 nM.

Compound `CNCc1cc(F)c(-c2cc3c(-c4ccc(N5CCOCC5)nc4)n[nH]c3cn2)c(C(F)(F)F)c1` [Example 121, 1-(3-Fluoro-4-(3-(6-morpholinopyridin-3-yl)-1H-pyrazolo[3,4-c]pyridin-5-yl)-5-(trifluoromethyl)phenyl)-N-methylmethanamine] gave a Ki of at most 100 nM.

The compound `CNCc1cc(F)c(-c2cc3c(-c4cnn(C)c4)n[nH]c3cn2)c(F)c1` [Example 122, 1-(3,5-Difluoro-4-(3-(1-methyl-1H-pyrazol-4-yl)-1H-pyrazolo[3,4-c]pyridin-5-yl)phenyl)-N-methylmethanamine] displayed an inhibitory constant (Ki) of at most 100 nM. The compound `CC(C)NCc1cc(F)c(-c2cc3c(-c4cnn(C)c4)n[nH]c3cn2)c(F)c1` [Example 123, N-(3,5-Difluoro-4-(3-(1-methyl-1H-pyrazol-4-yl)-1H-pyrazolo[3,4-c]pyridin-5-yl)benzyl)propan-2-amine] displayed an inhibition constant (Ki) of at most 100 nM. Next, `Cn1cc(-c2n[nH]c3cnc(-c4c(F)cc(CNc5ccccn5)cc4F)cc23)cn1` [Example 124, N-(3,5-Difluoro-4-(3-(1-methyl-1H-pyrazol-4-yl)-1H-pyrazolo[3,4-c]pyridin-5-yl)benzyl)pyridin-2-amine]: at most 100 nM.

`Cn1cc(-c2n[nH]c3cnc(-c4c(F)cc(CNc5ccn(C)n5)cc4F)cc23)cn1` [Example 125, N-(3,5-Difluoro-4-(3-(1-methyl-1H-pyrazol-4-yl)-1H-pyrazolo[3,4-c]pyridin-5-yl)benzyl)-1-methyl-1H-pyrazol-3-amine] displayed a Ki of at most 100 nM. Next, `Cn1cc(-c2n[nH]c3cnc(-c4c(F)cc(CNCCO)cc4F)cc23)cn1` [Example 126, 2-(3,5-Difluoro-4-(3-(1-methyl-1H-pyrazol-4-yl)-1H-pyrazolo[3,4-c]pyridin-5-yl)benzylamino)ethanol]: at most 100 nM; `CNCc1ccc(F)c(-c2cc3c(-c4cnn(C)c4)n[nH]c3cn2)c1F` [Example 127, 1-(2,4-Difluoro-3-(3-(1-methyl-1H-pyrazol-4-yl)-1H-pyrazolo[3,4-c]pyridin-5-yl)phenyl)-N-methylmethanamine]: at most 100 nM. Take `CC(C)NCc1ccc(F)c(-c2cc3c(-c4cnn(C)c4)n[nH]c3cn2)c1F` [Example 128, N-(2,4-Difluoro-3-(3-(1-methyl-1H-pyrazol-4-yl)-1H-pyrazolo[3,4-c]pyridin-5-yl)benzyl)propan-2-amine]: the inhibition constant Ki is at most 100 nM. Regarding `Cn1cc(-c2n[nH]c3cnc(-c4c(F)ccc(CNC5CC5)c4F)cc23)cn1` [Example 129, N-(2,4-Difluoro-3-(3-(1-methyl-1H-pyrazol-4-yl)-1H-pyrazolo[3,4-c]pyridin-5-yl)benzyl)cyclo propanamine], the Ki is at most 100 nM. Next, `COC1CCCN(Cc2ccc(F)c(-c3cc4c(-c5cnn(C)c5)n[nH]c4cn3)c2F)C1` (centres unmarked) [Example 130, 5-(2,6-Difluoro-3-((3-methoxypiperidin-1-yl)methyl)phenyl)-3-(1-methyl-1H-pyrazol-4-yl)-1H-pyrazolo[3,4-c]pyridine]: at most 100 nM. For `CNCc1cc(F)c(-c2cc3c(-c4cnn(C)c4)n[nH]c3cn2)c(C(F)(F)F)c1` [Example 131, 1-(3-Fluoro-4-(3-(1-methyl-1H-pyrazol-4-yl)-1H-pyrazolo[3,4-c]pyridin-5-yl)-5-(trifluoromethyl)phenyl)-N-methylmethanamine], the Ki is at most 100 nM. Then `CNCc1cc(F)c(-c2cc3c(-c4ccc(N5CCN(C)CC5)cc4)n[nH]c3cn2)c(C(F)(F)F)c1` [Example 132, 1-(3-Fluoro-4-(3-(4-(4-methylpiperazin-1-yl)phenyl)-1H-pyrazolo[3,4-c]pyridin-5-yl)-5-(trifluoromethyl)phenyl)-N-methylmethanamine], with at most 100 nM; and `CCn1cc(-c2n[nH]c3cnc(-c4c(C)cc(CNC)cc4F)cc23)cn1` [Example 133, 1-(4-(3-(1-Ethyl-1H-pyrazol-4-yl)-1H-pyrazolo[3,4-c]pyridin-5-yl)-3-fluoro-5-methylphenyl)-N-methylmethanamine], with at most 100 nM; and `CNCc1cc(C)c(-c2cc3c(-c4cnn(C5CC5)c4)n[nH]c3cn2)c(F)c1` [Example 134, 1-(4-(3-(1-Cyclopropyl-1H-pyrazol-4-yl)-1H-pyrazolo[3,4-c]pyridin-5-yl)-3-fluoro-5-methylphenyl)-N-methylmethanamine], with at most 100 nM. As for `CNCc1cc(C)c(-c2cc3c(-c4cnn(-c5ccccc5C#N)c4)n[nH]c3cn2)c(F)c1` [Example 135, 2-(4-(5-(2-Fluoro-6-methyl-4-((methylamino)methyl)phenyl)-1H-pyrazolo[3,4-c]pyridin-3-yl)-1H-pyrazol-1-yl)benzonitrile], the inhibitory constant (Ki) was at most 100 nM. For `CNCc1cc(C)c(-c2cc3c(-c4cnn(C5CCOCC5)c4)n[nH]c3cn2)c(F)c1` [Example 136, 1-(3-Fluoro-5-methyl-4-(3-(1-(tetrahydro-2H-pyran-4-yl)-1H-pyrazol-4-yl)-1H-pyrazolo[3,4-c]pyridin-5-yl)phenyl)-N-methylmethanamine], the Ki was at most 100 nM. In turn, `CNC1(c2cc(F)c(-c3cc4c(-c5cnn(C)c5)n[nH]c4cn3)c(F)c2)CC1` [Example 137, 1-(3,5-Difluoro-4-(3-(1-methyl-1H-pyrazol-4-yl)-1H-pyrazolo[3,4-c]pyridin-5-yl)phenyl)-N-methylcyclopropanamine] gave a Ki of at most 100 nM. Regarding `CNCc1ccc(F)c(-c2cc3c(-c4cnn(C)c4)n[nH]c3cn2)c1OC` [Example 138, 1-(4-Fluoro-2-methoxy-3-(3-(1-methyl-1H-pyrazol-4-yl)-1H-pyrazolo[3,4-c]pyridin-5-yl)phenyl)-N-methylmethanamine], the Ki was at most 100 nM. Consider `CCNCc1ccc(F)c(-c2cc3c(-c4cnn(C)c4)n[nH]c3cn2)c1OC` [Example 139, N-(4-Fluoro-2-methoxy-3-(3-(1-methyl-1H-pyrazol-4-yl)-1H-pyrazolo[3,4-c]pyridin-5-yl)benzyl)ethanamine], for which the Ki is at most 100 nM. Turning to `CC(C)NCc1cc(F)c(-c2cc3c(NC(=O)c4ccc(N5CCN(C)CC5)cc4)n[nH]c3cn2)c(F)c1` [Example 140, N-(5-(2,6-Difluoro-4-((isopropylamino)methyl)phenyl)-1H-pyrazolo[3,4-c]pyridin-3-yl)-4-(4-methylpiperazin-1-yl)benzamide], the Ki is at most 100 nM. `CN1CCN(c2ccc(C(=O)Nc3n[nH]c4cnc(-c5c(F)cc(CN6CCCC6)cc5F)cc34)cc2)CC1` [Example 141, N-(5-(2,6-Difluoro-4-(pyrrolidin-1-ylmethyl)phenyl)-1H-pyrazolo[3,4-c]pyridin-3-yl)-4-(4-methylpiperazin-1-yl)benzamide] had a Ki of at most 100 nM. With `CN1CCN(c2ccc(C(=O)Nc3n[nH]c4cnc(-c5c(F)cc(CN6CCC6)cc5F)cc34)cc2)CC1` [Example 142, N-(5-(4-(Azetidin-1-ylmethyl)-2,6-difluorophenyl)-1H-pyrazolo[3,4-c]pyridin-3-yl)-4-(4-methylpiperazin-1-yl)benzamide], the inhibition constant Ki is at most 100 nM.

Values taken from patent US10435405B2, “Pyrazolopyridine compounds and uses thereof” (Incyte Corporation, priority 2016, dated 2019).
